From patent US20240415985A1, “PHOTOCLEAVABLE PRODRUG-BASED NANOMEDICINE FOR IN-SITU MONITORABLE CANCER THERAPY” (The University of Hong Kong, priority 2021, published 2024)
pIC50: −log10 of the molar value. Read-outs that look alike come from different tables or passages of the source. Values belong to the molecule of their own block, whether it stands above or below them.

How the values were obtained:
[1] = Spectrum study of dye degradation under light irradiation (absorbance, fluorescence); type: physicochemical; conditions: for decomposition of dye upon light irradiation: 530 nm, in ICG/BC NPs and IR820/BC NPs (FIGS. 2K-2M)
Description: At different time points, the absorbance and fluorescence were measured by spectrometers without any dilution.

[2] = Loading capacity and encapsulation efficiency of IR783 and BC in NPs by HPLC; type: physicochemical
Description: BODIPY-Cb was dissolved in DMSO (20 μL, 10 mg/mL), and added dropwise to a 300 μL aqueous solution containing IR783 (400 μg/mL) under vigorous vortex. The solution was centrifuged once (2000×g, 10 min, 4° C.) to remove the precipitate. Then the supernatant was centrifuged twice (30,000×g, 30 min, 4° C.), and the resulting precipitate was re-suspended in 300 μL of sterile PBS. Other prodrug/dye NPs were prepared following the same procedure as above. The contents of IR783 and BC in the resulted nanoparticle solution were determined by HPLC analysis. Their loading capacity and encapsulation efficiency were calculated as follow: […]

[3] = In vivo biodistribution by fluorescence imaging in HCT116 tumor-bearing mice; parameters: species or system BALB/c nude mice; conditions: i.v., imaging 1-24 h post injection
Description: The biodistribution of IR783/BC NPs in the HCT116 tumor model was visualized by an in vivo fluorescence imaging system (Cailper PerkinElemer, Waltham, MA, United States). IR783, as a NIR fluorescent dye, was directly detected for living imaging. Mice were treated with free IR783 and IR783/BC NPs via intravenous injection with a dose of IR783 at 100 μg/kg. Fluorescence imaging was performed at 1, 6, 16, 20, and 24 h post injection. At 24 h, mice were euthanized and the tumors and major organs (heart, liver, spleen, lung, kidney) were excised for ex vivo imaging.

[4] = Singlet oxygen detection in solution (SOSG assay); type: physicochemical; conditions: 530 nm, 50 mW/cm^2, 0-1 min; equivalent concentration of BC
Description: Singlet oxygen generation was measured both in solutions and cells using SOSG and DCFH-DA as indicator, respectively. […] Besides, the intracellular ^1O2 generation was detected by CLSM. […] Subsequently, the cells were washed with PBS for 3 times and incubated with DCFH-DA (10 μM) for 30 min. The cells were irradiated by LED (530 nm, 50 mW/cm^2, 5 min) for the light irradiation groups. The intracellular fluorescence was observed by CLSM imaging to evaluate the ^1O2 generation.

[5] = system: human umbilical vein endothelial cells (HUVECs); test: Cytotoxicity in dark, biocompatibility evaluation; type: cell-based; conditions: 24 h, up to 100 μM
Description: (§1) HCT116 cells were cultured in RPMI-1640 (Gibco) supplemented with 10% FBS (Gibco) and 100 units/mL antibiotics (Penicillin-Streptomycin, Gibco) at 37° C. in a 5% CO2 humidified atmosphere. HUVECs cells were cultured in DMEM (Gibco) supplemented with 10% FBS (Gibco) and 100 units/mL antibiotics (Penicillin-Streptomycin, Gibco) at 37° C. in a 5% CO2 humidified atmosphere.
(§2) The cell viability was evaluated by MTT assay. HCT116 cells were incubated in 96-well microliter plates for 24 h. Then, gradient concentrations of BC prodrug or IR783/BC NPs in RPMI 1640 culture medium were added to the cells. After 6 h incubation, the residual BC or IR783/BC NPs were removed by fresh RPMI 1640 culture medium (100 μL). Then, the cells were irradiated by 530 nm LED light (50 mW/cm^2, 5 min) or incubated at room temperature without light. After another incubation for 24 h, MTT solution (10 μL, 10 mg/mL) was added to the cells to cultivate for 3 h. Next, the cell culture medium was discarded, and DMSO (100 μL) was then added. The absorbance was measured by a multi-mode microplate reader at 490 nm, 570 nm and 630 nm.

HCT116 xenografts = test: In vivo antitumor efficacy; parameters: species or system BALB/c nude mice; conditions: without light irradiation, i.v. Day 0, 4, 8, 12
Description: BALB/c nude mice were purchased from SLAC Experiment Animal Co., Ltd. (Shanghai, China) and kept in the Laboratory Animal Center of Fudan University (Shanghai, China). For the subcutaneous tumor model, male BALB/c nude mice were injected with 2×10^7 HCT116 cells subcutaneously. The mice were then further kept in SPF condition for 5-7 days until tumors were observed.
The antitumor efficacy of IR783/BC NPs in the presence or absence of light was investigated in HCT116 tumor mouse model. The mice were randomly divided into six groups when the tumor size reached about 200 mm^3. For different groups, mice were treated with different formulations via i.v. injection at Day 0, 4, 8, and 12: (1) PBS; (2) PBS+hv; (3) IR783+hv; (4) Cb; (5) IR783/BC NPs; (6) IR783/BC NPs+hv. For the irradiation group, light irradiations (100 mW/cm^2, 10 min) were performed 24 h post injection. The dose for each treatment was set as 5 mg/kg. Tumor sizes and body weights were measured in a 2-day interval, and the tumor volume was calculated as V=½×width^2×length. At the end of the experiment (Day 14), all mice were euthanized, and the tumors and major organs were collected and sliced for H&E staining and immunohistochemical analysis.

HCT116 cells [6] = test: Apoptosis study (Annexin-V FITC/PI, flow cytometry); type: cell-based, human; conditions: 20 μM, with or without light irradiation
Description: For apoptosis study, HCT116 cells were seeded in 6-well plates at a density of 50000 cells/well and treated with free Cb or IR783/BC NPs at the equivalent concentration of Cb at 5 μM and 20 μM for 6 h. Then the cells were washed by PBS. The cells in the irradiation group were irradiated by light for 5 min. After 24-h incubation, cells were washed by PBS, collected by trypsin digestion, and stained with Annexin-V/FITC apoptosis kit. ACEA NovoCyte Quanteon flow cytometer (ACEA Biosciences, San Diego, CA, USA) was used for cell study.

[7] = refs [17, 39]; cited from earlier work
HCT116 cells [8] = test: Anti-proliferation effect by MTT assay; type: cell-based, human
Description: as §1, §2

HCT116 cells [9] = test: Live/dead staining (Calcein-AM/PI); type: cell-based, human; conditions: BC equivalent 50 μM; groups with or without 530 nm irradiation as stated
Description: For live/dead staining, HCT116 cells were seeded in confocal dishes at a density of 10000 cells/well and treated with PBS, free IR783, free BC and IR783/BC NPs with an equivalent concentration of BC at 50 μM. For the irradiation groups, cells were washed by PBS after 6 h and irradiated by 530 nm LED for 5 min. Calcein-AM and PI were then added into the medium and the cells were observed by CLSM without any treatment.

Molecule: CC1(C)C(/C=C/C=C/C=C/C=C2\N(CCCCS(=O)(=O)O)c3ccc4ccccc4c3C2(C)C)=[N+](CCCCS(=O)(=O)[O-])c2ccc3ccccc3c21 [ICG, Indocyanine green]
decomposition of dye upon light irradiation [1]: decomposed

NIR fluorescence emission pattern upon light irradiation ([1]; 530 nm light irradiation): did not see similar phenomena
Encapsulation Efficiency [2]: 0.02%
Loading Capacity [2]: 1.15%
whole-body fluorescence retention after systemic administration [3]: fleetly eliminated
Molecule: CC1(C)C(=CC=C2CCCC(C=CC3=[N+](CCCCS(=O)(=O)[O-])c4ccccc4C3(C)C)=C2Cl)N(CCCCS(=O)(=O)[O-])c2ccccc21.[Na+] [IR783]
^1O2 generation (SOSG fluorescence) [4]: much lower efficiency
cytotoxicity in dark [5]: Negligible cytotoxicity

decomposition of dye upon light irradiation [1]: decomposed
Molecule: CC1(C)C(=CC=C2CCCC(C=CC3=[N+](CCCCS(=O)(=O)[O-])c4ccc5ccccc5c4C3(C)C)=C2Cl)N(CCCCS(=O)(=O)[O-])c2ccc3ccccc3c21.[Na+] [IR820]

Molecule: O=C(O)CCCc1ccc(N(CCCl)CCCl)cc1 [chlorambucil, Chlorambucil]
anti-tumor efficacy (HCT116 xenografts): undermined
apoptosis (HCT116 cells [6]): about 5%
hydrolysis in aqueous solution [7]: rapidly hydrolyze
cytotoxicity of free drug (HCT116 cells [8]; with/without light irradiation (FIG. 8B)): relatively low

Molecule: boron-dipyrromethene-chlorambucil [BC]
cell death in live-dead staining (HCT116 cells [9]): dead cells presenting red fluorescence were observed
Encapsulation Efficiency ([2]; listed as BC prodrug): 84.37%
Loading Capacity ([2]; listed as BC prodrug): 98.85%
Encapsulation Efficiency ([2]; listed as BODIPY-Cb): 84.37%
Loading Capacity ([2]; listed as BODIPY-Cb): 98.85%
pIC50 (HCT116 cells [8]; 530 nm light irradiation, on BC prodrug basis, read-out: IC50 (cell viability)): 5.03
